{"source": "patent US20020192286A1", "about": "“Biodegradable triblock copolymers as solubilizing agents for drugs and method of use thereof” (Macromed, Incorporated, priority 2001, published 2002)", "key": {"[1]": {"assay": "Behaviour of the polymer solution in aqueous liquid at 35-42° C.", "format": "physicochemical", "conditions": "copolymer with drug; between at least 35-42° C.", "experimental": "PEG (Mw=1450; 476.2 g) was dried under vacuum (1 mmHg) at 130° C. for 5 hours. D,L-Lactide (412.9 grams) and glycolide (110.9 grams) were added to the flask and heated to 145° C. to afford a homogenous solution. Polymerization was initiated by the addition of 250 mg stannous octoate to the reaction mixture. After maintaining the reaction for five hours at 145° C., the reaction was stopped and the flask was cooled to room temperature. Unreacted lactide and glycolide were removed by vacuum distillation. […] The copolymer was purified twice by dissolving in water to afford a 25% solution, and letting the solution stir overnight at room temperature followed by elevating the solution temperature to 70° C. to precipitate the polymer. Excess water was removed by freeze drying. […] The GPC was performed on two Phenogel columns (300×7.8), 500 Å, and a mixed bed, connected in series. Mobile phase was tetrahydrofuran. Calibration was with PEG standards. Detection was by refractive index."}, "[2]": {"conditions": "cited from earlier work"}, "[3]": {"assay": "Solubility of amphotericin B in 23 wt % triblock copolymer solution", "format": "physicochemical", "experimental": "Triblock copolymer of Example 2 (entry number 1) was used. The drug was mixed with the copolymer solution (23 wt % copolymer in water). The mixture was allowed to stand for 30 minutes before filtration."}, "physchem [4]": {"assay": "physchem", "experimental": "Triblock copolymers of Example 2 were used. The neat polymer and the drug were mixed and gently heated (ca. 50° C.) to completely dissolve the drug. Water was added to the mixture to afford a 23% by weight aqueous solution of the triblock copolymers. The solution was allowed to stand for 30 minutes before filtration (0.2 μm pore size filter)."}, "physchem [5]": {"assay": "physchem", "experimental": "Polymer solutions containing 23% by weight of the copolymer were prepared in water, and paclitaxel was added to the solution and the mixture was stirred for approximately 20 minutes.", "remark": "listed apart in the source"}}}
{"smiles": "C[C@@H]1[C@H](O)[C@@H](C)/C=C/C=C/C=C/C=C/C=C/C=C/C=C/[C@H](O[C@@H]2O[C@H](C)[C@@H](O)[C@H](N)[C@@H]2O)C[C@@H]2O[C@](O)(C[C@@H](O)C[C@@H](O)[C@H](O)CC[C@@H](O)C[C@@H](O)CC(=O)O[C@H]1C)C[C@H](O)[C@H]2C(=O)O", "note": "[amphotericin B]", "values": [{"measurement": "state of polymer solution containing drug when mixed with an aqueous liquid", "setting": "[1]", "value": "remained as a free flowing liquid"}, {"measurement": "reported solubility in pure water", "setting": "[2]", "value": 0.003, "unit": "mg/mL"}, {"measurement": "solubility in the aqueous triblock copolymer solution", "setting": "[3]; 23 wt % copolymer of Example 2 entry number 1 in water, 30 minutes, filtered", "value": 0.15, "unit": "mg/mL"}, {"measurement": "increase of solubility", "setting": "[3]; copolymer solution versus pure water", "value": 50, "unit": "fold"}]}
{"smiles": "COC1=CC(=O)C[C@@H](C)[C@]12Oc1c(Cl)c(OC)cc(OC)c1C2=O", "note": "[griseofulvin]", "values": [{"measurement": "solubility at 30 min", "setting": "physchem [4]; 25 °C, aqueous with cosolvent or surfactant or cyclodextrin, Drug Solubility", "value": 1.5, "unit": "mg/mL"}, {"measurement": "Drug Solubility", "setting": "physchem [4]; 30 min", "value": 1.57, "unit": "mg/mL"}, {"measurement": "solubility", "setting": "physchem [4]; water, water solubility", "value": 0.01, "unit": "mg/mL"}, {"measurement": "state of polymer solution containing drug when mixed with an aqueous liquid", "setting": "[1]", "value": "remained as free flowing liquids"}]}
{"smiles": "CC(=O)O[C@H]1C(=O)[C@@]2(C)[C@H]([C@H](OC(=O)c3ccccc3)[C@]3(O)C[C@H](OC(=O)[C@H](O)[C@@H](NC(=O)c4ccccc4)c4ccccc4)C(C)=C1C3(C)C)[C@]1(OC(C)=O)CO[C@@H]1C[C@@H]2O", "note": "[paclitaxel]", "values": [{"measurement": "state of polymer solution containing drug when mixed with an aqueous liquid", "setting": "[1]", "value": "remained as a free flowing liquid"}, {"measurement": "increase of solubility", "setting": "physchem [5]", "value": "at least 5000 fold"}, {"measurement": "solubility", "setting": "physchem [5]; aqueous with cosolvent or surfactant or cyclodextrin, thermodynamic from solid", "value": "> 25", "unit": "mg/mL"}, {"measurement": "solubility", "setting": "physchem [5]; water", "value": "~0.005", "unit": "mg/mL"}]}
